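Grown in 96-well plates, cells were treated for 48 hours with each compound at five concentrations. Insufficient inhibition: endpoint recorded as highest concentration tested. GI50 marks 50% less growth. TGI is the concentration that stops growth completely.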
Legend:
Assay in all cases: NCI-60 cell line screen, 48 h
BT-549 breast = system: BT-549 breast
HT29 colon = system: HT29 colon
KM12 colon = system: KM12 colon
MDA-MB-231 breast = system: MDA-MB-231 breast
NCI/ADR-RES ovarian = system: NCI/ADR-RES ovarian
OVCAR-4 ovarian = system: OVCAR-4 ovarian
SNB-19 CNS = system: SNB-19 CNS
U251 CNS = system: U251 CNS
UO-31 renal = system: UO-31 renal
MCF7 breast = system: MCF7 breast

| SMILES | TGI (BT-549 breast) [µM] | TGI (HT29 colon) [µM] | TGI (KM12 colon) [µM] | TGI (MDA-MB-231 breast) [µM] | TGI (NCI/ADR-RES ovarian) [µM] | TGI (OVCAR-4 ovarian) [µM] | TGI (SNB-19 CNS) [µM] | TGI (U251 CNS) [µM] | TGI (UO-31 renal) [µM] | GI50 (HT29 colon) [µM] | GI50 (KM12 colon) [µM] | GI50 (MCF7 breast) [µM] | TGI (MCF7 breast) [µM] | GI50 (MDA-MB-231 breast) [µM] | GI50 (NCI/ADR-RES ovarian) [µM] | GI50 (OVCAR-4 ovarian) [µM] | GI50 (SNB-19 CNS) [µM] | GI50 (UO-31 renal) [µM] | GI50 (BT-549 breast) [µM] |
| --- | --- | --- | --- | --- | --- | --- | --- | --- | --- | --- | --- | --- | --- | --- | --- | --- | --- | --- | --- |
| COc1cc(Oc2nc3ccccc3nc2C(=O)O)cc(OC)c1OC | > 100 | > 100 | > 100 | > 100 | > 100 | > 100 | > 100 | > 100 | > 100 | – | – | – | – | – | – | – | – | – | – |
| CCN1CCN(C(=O)[C@]23CC[C@@H](C)[C@H](C)[C@@H]2C2=CC[C@@H]4[C@@]5(C)C/C(=C/c6cccnc6)C(=O)C(C)(C)[C@@H]5CC[C@@]4(C)[C@]2(C)CC3)CC1 | – | 5.36 | 3.56 | 3.59 | 3.32 | 7.36 | 3.74 | – | 2.65 | 1.93 | 1.75 | 1.64 | 3.42 | 1.75 | 1.59 | 2.57 | 1.79 | 1.36 | – |
| CCOC(=O)C(=[N+]=[N-])C(=O)C[N+]12CCN(CC1)CC2 | > 100 | > 100 | > 100 | > 100 | > 100 | > 100 | > 100 | > 100 | > 100 | – | – | – | – | – | – | – | – | – | – |
| O=c1c2ccccc2oc2c1ccc1ncccc12 | 63 | > 100 | > 100 | > 100 | 36.3 | 46.1 | – | – | 40.9 | – | – | – | 27.8 | – | – | – | – | – | – |
| Nn1c(Cc2ccc(Cl)cc2)n[nH]c1=O | – | > 100 | > 100 | > 100 | > 100 | > 100 | > 100 | > 100 | > 100 | – | – | – | – | – | – | – | – | – | – |
| CCNC(=S)N/N=C/c1cc(OC)ccc1O | – | > 100 | > 100 | > 100 | > 100 | > 100 | > 100 | > 100 | > 100 | – | – | – | > 100 | – | – | – | – | – | – |
| COc1ccc(/C=N\N2CC(=O)N3C4C=CC(CC4)N3C2=O)cc1 (configuration not stated) | > 100 | > 100 | > 100 | > 100 | > 100 | – | > 100 | > 100 | > 100 | – | – | – | > 100 | – | – | – | – | – | – |
| C[C@]12CC[C@H]3[C@@H](CCC4=CC(=O)C=C[C@@]43O)[C@@H]1CCC2=O | > 100 | – | > 100 | > 100 | > 100 | – | > 100 | > 100 | > 100 | – | – | – | > 100 | – | – | – | – | – | – |
| C/C(O)=C/c1nc2ccccc2nc1/C=C(/C)O | > 100 | 43.3 | 57.3 | 53 | 93.2 | 48.5 | > 100 | 50.9 | 56 | – | – | – | – | – | – | – | – | – | – |
| Cc1cc2c(cc1-c1cc3c(cc1C)C(C(C)C)=C(O)C(=O)/C3=C\Nc1nc(-c3ccccc3)cs1)/C(=C/Nc1nc(-c3ccccc3)cs1)C(=O)C(O)=C2C(C)C | 89 | 50.2 | > 100 | 28.5 | 63.9 | 86.7 | 37.9 | 27.5 | – | – | – | – | 41.1 | – | – | – | – | – | – |
| CC1CN=C(Nc2cccc(C(F)(F)F)c2)S1 (configuration not stated) | > 100 | > 100 | > 100 | > 100 | – | – | > 100 | > 100 | 78.6 | – | – | – | > 100 | – | – | – | – | – | – |
| C=CCOc1ccc(C2c3c([nH][nH]c3=O)CC(O)(OCC)C2C(=O)OCC)cc1OC (configuration not stated) | – | > 100 | > 100 | > 100 | > 100 | > 100 | > 100 | > 100 | > 100 | – | – | – | > 100 | – | – | – | – | – | – |
| CCOC(=O)C1=CN=C2C(=O)N(c3ccccc3)N(C)C2(C)C1=N (configuration not stated) | > 100 | – | > 100 | > 100 | > 100 | > 100 | > 100 | > 100 | > 100 | – | – | – | > 100 | – | – | – | – | – | – |
| Cc1cc(O)c(C(C)C)cc1NC(=O)Nc1cccc2ccccc12 | 36.1 | 36.1 | 38.8 | 31.7 | 76.2 | 24.4 | 30.2 | 31 | 42.9 | – | – | – | – | – | – | – | – | – | – |
| CSC1=Nc2ccccc2-c2nc(-c3ccccc3)cc(-c3ccccc3)c2C1 | > 100 | > 100 | > 100 | 41.6 | > 100 | > 100 | > 100 | 44.4 | 76.6 | – | – | – | – | – | – | – | – | – | – |
| CCSc1ncnc2c(C3OC(CO)C(O)C3O)nsc12 (configuration not stated) | – | > 100 | – | > 100 | > 100 | > 100 | – | > 100 | – | – | – | – | > 100 | – | – | – | – | – | – |
| c1ccc2c(c1)c1c(n2CCOCCN2CCCCC2)CCCC1 | – | 24.6 | 26.7 | 24.4 | 23.4 | 25.3 | – | 32.7 | 24.6 | – | – | – | 27.6 | – | – | – | – | – | – |
| CCOC(=O)c1ccc(-c2cc(C)[nH]n2)[nH]1 | > 100 | > 100 | > 100 | > 100 | > 100 | > 100 | > 100 | > 100 | > 100 | – | – | – | – | – | – | – | – | – | – |
| COc1cc(C2c3cc4c(cc3C(O)C3CCC(=O)N23)OCO4)cc(OC)c1OC (configuration not stated) | 66.1 | 76.7 | > 100 | > 100 | > 100 | – | > 100 | 82.8 | 71.2 | – | – | – | 81 | – | – | – | – | – | – |
| C=Nc1ccc([N+](=O)[O-])cc1 | – | > 100 | > 100 | – | – | > 100 | > 100 | > 100 | > 100 | – | – | – | – | – | – | – | – | – | – |
| C(=N\Nc1ncc(-c2cc3cc4c(cc3o2)OCO4)s1)/c1c[nH]c2ccccc12 | 7.55 | > 100 | 2.04 | – | – | 4.1 | 6.25 | – | 1.57 | 3.32 | 0.449 | 0.566 | 5.39 | – | – | 0.503 | 1.57 | 0.348 | 1.32 |
| Nc1ccc2c(c1)C1Oc3ccccc3CC1CO2 (configuration not stated) | > 100 | > 100 | > 100 | > 100 | > 100 | – | – | > 100 | > 100 | – | – | – | > 100 | – | – | – | – | – | – |
| Cc1cc(S(=O)(=O)Nc2nc3ccsc3c(=O)n2N)c(S)cc1Cl | > 100 | > 100 | > 100 | > 100 | > 100 | > 100 | > 100 | > 100 | – | – | – | – | > 100 | – | – | – | – | – | – |

— PubChem BioAssay (NCI)
